Assay results published in BindingDB's records for patent US12187701 (Dana-Farber Cancer Institute, 2025).

Molecular target: Cyclin-dependent kinase 14 (Homo sapiens, UniProt O94921)
Assay: In vitro Kinase Assay
Protocol: Lanthascreen Eu kinase binding assays were conducted for Cdk14/CycY largely as performed in the commercial assay service by Life Technologies, but included a 30 minute pre-incubation step of the kinase with candidate compounds to facilitate covalent bond formation.

Sequence of Cyclin-dependent kinase 14 (O94921 whole entry): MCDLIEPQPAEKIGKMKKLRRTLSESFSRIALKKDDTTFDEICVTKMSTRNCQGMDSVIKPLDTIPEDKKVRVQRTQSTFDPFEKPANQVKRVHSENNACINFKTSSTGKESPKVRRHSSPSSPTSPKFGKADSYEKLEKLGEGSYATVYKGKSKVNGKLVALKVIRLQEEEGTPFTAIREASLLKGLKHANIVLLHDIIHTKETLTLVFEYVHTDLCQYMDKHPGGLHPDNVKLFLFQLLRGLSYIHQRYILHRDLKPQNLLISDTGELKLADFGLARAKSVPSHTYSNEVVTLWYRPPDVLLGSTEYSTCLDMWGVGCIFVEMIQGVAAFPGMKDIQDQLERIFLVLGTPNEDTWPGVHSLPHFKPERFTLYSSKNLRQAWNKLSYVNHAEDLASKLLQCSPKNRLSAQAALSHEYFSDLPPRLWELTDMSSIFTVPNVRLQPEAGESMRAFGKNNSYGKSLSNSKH

CN(C)C/C=C/C(=O)Nc1cccc(CNC(=O)c2n[nH]cc2NC(=O)c2c(Cl)cccc2Cl)c1 [US12187701, Compound FMF-05-064-2]
IC50: 108 nM
